Experimental data as given in US9163021B2, “Pyrrolo[3,2-c]pyridine tropomyosin-related kinase inhibitors” (Pfizer Limited, priority 2012, dated 2015).

Biological target: TRKA (Homo sapiens (Human), UniProt P04629)
Test: Isolated TRK enzyme assay (HTRF KinEASE-TK), PV3144 TrkA enzyme assay
Assay type: biochemical
Settings: arithmetic mean where more than one reading
Protocol: Isolated TRK Enzyme assays use the HTRF KinEASE-TK kit (Cisbio Cat#62TK0PEJ) with recombinant His-tagged cytoplasmic domains of each TRK receptor sourced from Invitrogen (see table below). This activity-assay measures the phosphorylation of tyrosine residues within a substrate from the HTRF kit which has been validated by Cisbio for a variety of tyrosine kinases including the TRK receptors.
0.5 mM stock solutions of test compounds are prepared and serially diluted in 100% DMSO. A standard curve using the compound of Example 135 disclosed in WO2005/116035 of 150 uM is also prepared on each test plate. High percentage effect (HPE) is defined by 150 uM (using the compound of Example 135 as disclosed in WO2005/116035) and 0% effect (ZPE) is defined by 100% DMSO. Greiner low volume black plates containing 0.2 ul of serially diluted compound, standard and HPE/ZPE are created using the Bravo nanoliter dispenser.
1× enzyme buffer is prepared from 5× Enzymatic Buffer from the Cisbio KinEASE TK kit using MilliQ water. The buffer is then supplemented with 10 mM MgCI and 2 mM DTT (both from Sigma). In the case of TRKB, the buffer is also supplemented with 125 nM Supplement Enzymatic Buffer (SEB) from the Cisbio kit.
2× FAC of enzyme and 2× FAC ATP diluted in 1× complete enzyme buffer is incubated at room temperature for 20 minutes to preactivate the enzyme. Following this preactivation step, 5 ul/well of enzyme+ATP mix is added using a Multidrop Micro to the assay plate, spotted with 0.2 ul 100% DMSO compound. This is left for 20 mins at room temperature before adding 5 ul of 2 uM TK-substrate-Biotin (from the Cisbio kit) diluted in 1× enzyme buffer (1 uM FAC) using the Multidrop Micro. The reaction is incubated at room temperature for the optimized assay reaction time (see table). The reaction is stopped by adding 10 ul/well HTRF Detection Buffer containing 0.25 uM Streptavidin-XL665 (0.125 uM FAC) and 1:200 TK Antibody-Cryptate using a Multidrop.
After the Detection Reagent addition, plates are covered and incubated at room temperature for 60 minutes. HTRF signal is read using an Envision reader, measured as a ratio of emissions at two different wavelengths, 620 nm and 665 nm. […] Test compound data are expressed as percentage inhibition defined by HPE and ZPE values for each plate. Percentage inhibition in the presence of test compound is plotted against compound concentration on a log scale to determine an IC50 from the resultant sigmoid curve.
Where more than one reading was taken, the arithmetic mean is presented.

Chain of TRKA (P04629 441-796): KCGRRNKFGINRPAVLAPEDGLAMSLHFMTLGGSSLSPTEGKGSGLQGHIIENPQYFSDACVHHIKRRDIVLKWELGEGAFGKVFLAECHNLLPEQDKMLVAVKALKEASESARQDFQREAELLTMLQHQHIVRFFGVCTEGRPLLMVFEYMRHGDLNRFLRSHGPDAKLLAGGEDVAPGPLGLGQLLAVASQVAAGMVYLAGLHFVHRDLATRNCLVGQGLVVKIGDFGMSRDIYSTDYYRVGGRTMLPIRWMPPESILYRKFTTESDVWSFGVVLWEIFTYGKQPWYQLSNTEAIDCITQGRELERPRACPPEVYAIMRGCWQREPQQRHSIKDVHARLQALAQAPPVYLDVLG

Compound | IC50
2-(2,5-dicyclopropyl-1,3-oxazol-4-yl)-N-(4-{[1-(oxetan-3-yl)-1H-pyrrolo[3,2-c]pyridin-3-yl]carbonyl}pyridin-2-yl)acetamide [Example 203] | 71.3 nM
2-(3-methoxyphenyl)-N-(5-{[1-(propan-2-yl)-1H-pyrrolo[3,2-c]pyridin-3-yl]carbonyl}pyridin-3-yl)acetamide [Example 129] | 96.2 nM
CC(CO)n1cc(C(=O)c2cc(NC(=O)Cc3ccc(Cl)cn3)ccn2)c2cnccc21 (single isomer, unassigned) [Example 17, 2-(5-chloropyridin-2-yl)-N-(2-{[1-(1-hydroxypropan-2-yl)-1H-pyrrolo[3,2-c]pyridin-3-yl]carbonyl}pyridin-4-yl)acetamide] | 106 nM
CC(CO)n1cc(C(=O)c2cc(NC(=O)Cc3cccc(C(F)(F)F)c3)ccn2)c2cnccc21 (single isomer, unassigned) [Example 18, 2-(3-trifluoromethylphenyl)-N-(2-{[1-(1-hydroxypropan-2-yl)-1H-pyrrolo[3,2-c]pyridin-3-yl]carbonyl}pyridin-4-yl)acetamide] | 36.4 nM
CC(CO)n1cc(C(=O)c2cncc(NC(=O)Cc3cccc(C(F)(F)F)c3)c2)c2cnccc21 (single isomer, unassigned) [Example 34, N-(5-{[1-(1-hydroxypropan-2-yl)-1H-pyrrolo[3,2-c]pyridin-3-yl]carbonyl}pyridin-3-yl)-2-[3-(trifluoromethyl)phenyl]acetamide] | 17.1 nM
CC(CO)n1cc(C(=O)c2cncc(NC(=O)Cc3ccc(C(F)(F)F)cc3)c2)c2cnccc21 (single isomer, unassigned) [Example 35, N-(5-{[1-(1-hydroxypropan-2-yl)-1H-pyrrolo[3,2-c]pyridin-3-yl]carbonyl}pyridin-3-yl)-2-[4-(trifluoromethyl)phenyl]acetamide] | 87.9 nM
CC(CO)n1cc(C(=O)c2cncc(NC(=O)Cc3cccc(C(F)(F)F)c3)c2)c2cnccc21 (single isomer, unassigned) [Example 36, N-(5-{[1-(1-hydroxypropan-2-yl)-1H-pyrrolo[3,2-c]pyridin-3-yl]carbonyl}pyridin-3-yl)-2-[3-(trifluoromethyl)phenyl]acetamide] | 44.7 nM
CC(CO)n1cc(C(=O)c2cncc(NC(=O)Cn3cc(C(F)(F)F)nn3)c2)c2cnccc21 (single isomer, unassigned) [Example 59, N-(5-{[1-(1-hydroxypropan-2-yl)-1H-pyrrolo[3,2-c]pyridin-3-yl]carbonyl}pyridin-3-yl)-2-[4-(trifluoromethyl)-1H-1,2,3-triazol-1-yl]acetamide] | 63.9 nM
CC(CO)n1cc(C(=O)c2cncc(NC(=O)Cn3cc(C4CC4)nn3)c2)c2cnccc21 (single isomer, unassigned) [Example 61, 2-(4-cyclopropyl-1H-1,2,3-triazol-1-yl)-N-(5-{[1-(1-hydroxypropan-2-yl)-1H-pyrrolo[3,2-c]pyridin-3-yl]carbonyl}pyridin-3-yl)acetamide] | 65.9 nM
CC(C)c1cn(CC(=O)Nc2cncc(C(=O)c3cn(C(C)CO)c4ccncc34)c2)nn1 (single isomer, unassigned) [Example 62, N-(5-{[1-(1-hydroxypropan-2-yl)-1H-pyrrolo[3,2-c]pyridin-3-yl]carbonyl}pyridin-3-yl)-2-[4-(propan-2-yl)-1H-1,2,3-triazol-1-yl]acetamide] | 54.3 nM
Cc1cc(C(F)(F)F)nn1CC(=O)Nc1cncc(C(=O)c2cn(C(C)CO)c3ccncc23)c1 (single isomer, unassigned) [Example 63, N-(5-{[1-(1-hydroxypropan-2-yl)-1H-pyrrolo[3,2-c]pyridin-3-yl]carbonyl}pyridin-3-yl)-2-[5-methyl-3-(trifluoromethyl)-1H-pyrazol-1-yl]acetamide] | 28.8 nM
CC(C)n1ncc(CC(=O)Nc2cncc(C(=O)c3cn(C(C)CO)c4ccncc34)c2)c1C(F)(F)F (single isomer, unassigned) [Example 64, N-(5-{[1-(1-hydroxypropan-2-yl)-1H-pyrrolo[3,2-c]pyridin-3-yl]carbonyl}pyridin-3-yl)-2-[1-(propan-2-yl)-5-(trifluoromethyl)-1H-pyrazol-4-yl]acetamide] | 105 nM
CC(CO)n1cc(C(=O)c2cncc(NC(=O)Cc3ccc(C(F)(F)F)cc3)c2)c2cnccc21 (single isomer, unassigned) [Example 65, N-(5-{[1-(1-hydroxypropan-2-yl)-1H-pyrrolo[3,2-c]pyridin-3-yl]carbonyl}pyridin-3-yl)-2-[4-(trifluoromethyl)phenyl]acetamide] | 37 nM
CC(CO)n1cc(C(=O)c2cncc(NC(=O)Cc3ccc(Cl)cn3)c2)c2cnccc21 (single isomer, unassigned) [Example 66, 2-(5-chloropyridin-2-yl)-N-(5-{[1-(1-hydroxypropan-2-yl)-1H-pyrrolo[3,2-c]pyridin-3-yl]carbonyl}pyridin-3-yl)acetamide] | 37.6 nM
CC(CO)n1cc(C(=O)c2cncc(NC(=O)Cc3ccc(F)cn3)c2)c2cnccc21 (single isomer, unassigned) [Example 68, 2-(5-fluoropyridin-2-yl)-N-(5-{[1-(1-hydroxypropan-2-yl)-1H-pyrrolo[3,2-c]pyridin-3-yl]carbonyl}pyridin-3-yl)acetamide] | 201 nM
CC(CO)n1cc(C(=O)c2cncc(NC(=O)Cn3cc(C(F)(F)F)nn3)c2)c2cnccc21 (single isomer, unassigned) [Example 69, N-(5-{[1-(1-hydroxypropan-2-yl)-1H-pyrrolo[3,2-c]pyridin-3-yl]carbonyl}pyridin-3-yl)-2-[4-(trifluoromethyl)-1H-1,2,3-triazol-1-yl]acetamide] | 77.6 nM
CC(C)c1cn(CC(=O)Nc2cncc(C(=O)c3cn(C(C)CO)c4ccncc34)c2)nn1 (single isomer, unassigned) [Example 70, N-(5-{[1-(1-hydroxypropan-2-yl)-1H-pyrrolo[3,2-c]pyridin-3-yl]carbonyl}pyridin-3-yl)-2-[4-(propan-2-yl)-1H-1,2,3-triazol-1-yl]acetamide] | 65.6 nM
CC(C)n1ncc(CC(=O)Nc2cncc(C(=O)c3cn(C(C)CO)c4ccncc34)c2)c1C(F)(F)F (single isomer, unassigned) [Example 71, N-(5-{[1-(1-hydroxypropan-2-yl)-1H-pyrrolo[3,2-c]pyridin-3-yl]carbonyl}pyridin-3-yl)-2-[1-(propan-2-yl)-5-(trifluoromethyl)-1H-pyrazol-4-yl]acetamide] | 149 nM
CC(CO)n1cc(C(=O)c2cncc(NC(=O)Cc3ccc(C#N)cc3)c2)c2cnccc21 (single isomer, unassigned) [Example 72, 2-(4-cyanophenyl)-N-(5-{[1-(1-hydroxypropan-2-yl)-1H-pyrrolo[3,2-c]pyridin-3-yl]carbonyl}pyridin-3-yl)acetamide] | 125 nM
CC(CO)n1cc(C(=O)c2cncc(NC(=O)Cc3ccc(Cl)cn3)c2)c2cnccc21 (single isomer, unassigned) [Example 73, 2-(5-chloropyridin-2-yl)-N-(5-{[1-(1-hydroxypropan-2-yl)-1H-pyrrolo[3,2-c]pyridin-3-yl]carbonyl}pyridin-3-yl)acetamide] | 88.3 nM
CC(CO)n1cc(C(=O)c2cncc(NC(=O)Cc3ccc(F)cn3)c2)c2cnccc21 (single isomer, unassigned) [Example 74, 2-(5-fluoropyridin-2-yl)-N-(5-{[1-(1-hydroxypropan-2-yl)-1H-pyrrolo[3,2-c]pyridin-3-yl]carbonyl}pyridin-3-yl)acetamide] | 233 nM
CC(CO)n1cc(C(=O)c2cncc(NC(=O)Cn3cc(C4CC4)nn3)c2)c2cnccc21 (single isomer, unassigned) [Example 76, 2-(4-cyclopropyl-1H-1,2,3-triazol-1-yl)-N-(5-{[1-(1-hydroxypropan-2-yl)-1H-pyrrolo[3,2-c]pyridin-3-yl]carbonyl}pyridin-3-yl)acetamide] | 121 nM
Cc1cc(C(F)(F)F)nn1CC(=O)Nc1cncc(C(=O)c2cn(C(C)CO)c3ccncc23)c1 (single isomer, unassigned) [Example 77, N-(5-{[1-(1-hydroxypropan-2-yl)-1H-pyrrolo[3,2-c]pyridin-3-yl]carbonyl}pyridin-3-yl)-2-[5-methyl-3-(trifluoromethyl)-1H-pyrazol-1-yl]acetamide] | 33.7 nM
CC(CO)n1cc(C(=O)c2cc(NC(=O)Cc3ccc(Cl)cn3)ccn2)c2cnccc21 (single isomer, unassigned) [Example 86, 2-(5-chloropyridin-2-yl)-N-(2-{[1-(1-hydroxypropan-2-yl)-1H-pyrrolo[3,2-c]pyridin-3-yl]carbonyl}pyridin-4-yl)acetamide] | 93.2 nM
